Assay results published in US20220202811A1, “TREATMENT FOR RETINOIC ACID RECEPTOR-RELATED ORPHAN RECEPTOR Ɣ (RORƔ)-DEPENDENT CANCERS” (The Regents of the University of California, priority 2019, published 2022).
Entries after “also recorded” stand apart in the source; their conditions may differ.

What was measured:
pancreatic cancer cell [1] = test: in vitro sphere formation, antagonists of Table 2; type: cell-based, mouse; design: key: ✓✓✓✓: dose response observed; growth suppressed by 8-fold or more relative to control; ✓✓✓: dose response observed; growth suppressed between 4-fold and 8-fold relative to control; ✓✓: dose response observed; growth suppressed by less than 4-fold relative to control; ✓: response observed only at highest drug dose tested; —: no detectable response; settings: extent of growth suppression relative to control
Description: Pancreatic tumorsphere formation assays were performed and modified from (Rovira et al., 2010). Briefly, low-passage (<6 passages) WT or REM2-KP^f/fC cell lines were infected with lentiviral particles containing shRNAs; positively infected (red) cells were sorted 72 hours after transduction. 100-300 infected cells were suspended in tumorsphere media: 100 μl DMEM F-12 (Gibco, Life Technologies) containing 1× B-27 supplement (Gibco, Life Technologies), 3% FBS, 100 μM B-mercaptoethanol (Gibco, Life Technologies), 1× non-essential amino acids (Gibco, Life Technologies), 1× N2 supplement (Gibco, Life Technologies), 20 ng/ml EGF (Gibco, Life Technologies), 20 ng/ml bFGF2 (Gibco, Life Technologies), and 10 ng/ml ESGRO mLIF (Thermo Fisher). Cells in media were plated in 96-well ultra-low adhesion culture plates (Costar) and incubated at 37° C. for 7 days. KP^f/fC in vitro tumorsphere formation studies were conducted at a minimum of n=3 independent wells per cell line across two independent shRNA of n=3 wells; however, the majority of these experiments were additionally completed in >1 independently-derived cell lines n=3, at n=3 wells per shRNA.

pancreatic cancer cell [2] = test: in vivo tumor growth, antagonists of Table 2; design: species or system mouse; key: ✓✓✓✓: dose response observed; growth suppressed by 8-fold or more relative to control; ✓✓✓: dose response observed; growth suppressed between 4-fold and 8-fold relative to control; ✓✓: dose response observed; growth suppressed by less than 4-fold relative to control; ✓: response observed only at highest drug dose tested; —: no detectable response; settings: extent of growth suppression relative to control
[3] = tested on: primary patient-derived PDX1535 organoids; test: PDX1535 organoid assay; type: cell-based, human
Description: PDX1535 organoids were derived from a patient of pancreatic cancer. Primary patient organoids were established by digesting patient-derived xenografts for 1 hour at 37° C. in RPMI containing 2.5% FBS, 5 mg/ml Collagenase II, and 1.25 mg/ml Dispase II, followed by passage through a […] mesh filter. Cells were plated at a density of 1.5×10^5 cells per 50 μl Matrigel. After domes were solidified, growth medium was added as follows: RPMI containing 50% Wnt3a conditioned media, 10% RSpondin1-conditioned media, 2.5% FBS, 50 ng/ml EGF, 5 mg/ml Insulin, 12.5 ng/ml hydrocortisone, and 14 μM Rho Kinase Inhibitor. After establishment, organoids were passaged and maintained. Briefly, organoids were isolated using Cell Recovery Solution (Corning 354253), then dissociated into single cell suspension with TrypLE Express (ThermoFisher 12604) supplemented with 25 μg/ml DNase I (Roche) and 14 μM Rho Kinase Inhibitor (Y-27632, Sigma). Cells were split 1:2 into 20 μl domes plated on pre-warmed 48-well plates. Domes were incubated at 37° C. for 5 min, then covered with human complete organoid feeding media without Wnt3a-conditioned media. […] The organoids were imaged and measured at the end of treatment. […] Moreover, the anti-cancer effect of JTE-151 was determined in an organoid assay using pancreatic cancer cells derived from mice bearing primary patient-derived xenografts.

[4] = tested on: primary patient-derived PDX1356 organoids; test: PDX1356 organoid assay; type: cell-based, human; settings: 0.05 nM gemcitabine alone
Description: PDX1535 organoids were derived from a patient of pancreatic cancer. Primary patient organoids were established by digesting patient-derived xenografts for 1 hour at 37° C. in RPMI containing 2.5% FBS, 5 mg/ml Collagenase II, and 1.25 mg/ml Dispase II, followed by passage through a […] mesh filter. Cells were plated at a density of 1.5×10^5 cells per 50 μl Matrigel. After domes were solidified, growth medium was added as follows: RPMI containing 50% Wnt3a conditioned media, 10% RSpondin1-conditioned media, 2.5% FBS, 50 ng/ml EGF, 5 mg/ml Insulin, 12.5 ng/ml hydrocortisone, and 14 μM Rho Kinase Inhibitor. After establishment, organoids were passaged and maintained. Briefly, organoids were isolated using Cell Recovery Solution (Corning 354253), then dissociated into single cell suspension with TrypLE Express (ThermoFisher 12604) supplemented with 25 μg/ml DNase I (Roche) and 14 μM Rho Kinase Inhibitor (Y-27632, Sigma). Cells were split 1:2 into 20 μl domes plated on pre-warmed 48-well plates. Domes were incubated at 37° C. for 5 min, then covered with human complete organoid feeding media without Wnt3a-conditioned media.
As shown in FIGS. 65-66, the anti-cancer effect of JTE-151 was also tested using the organoid assay on primary patient-derived PDX1356 pancreatic cancer cells. […] The volume of organoids was expressed as relative to control.

[5] = tested on: KP^f/fC derived flank tumors; test: KP^f/fC flank tumors in immunocompetent mice; type: in vivo, mouse; settings: gemcitabine alone

Row | SMILES | in vitro sphere formation (pancreatic cancer cell [1]) | in vivo tumor growth (pancreatic cancer cell [2]) | also measured
1 | O=C1/C(=C/c2ccccc2)C(NC2CCCCC2)c2ccccc21 (centres unmarked) [BCl] | ✓✓ (dose response observed; growth suppressed by less than 4-fold relative to control) | — | 
2 | Nc1ccn([C@@H]2O[C@H](CO)[C@@H](O)C2(F)F)c(=O)n1 [gemcitabine] |  |  | organoid growth ([3]; 0.025 nM gemcitabine alone): decreased PDZ1535 organoid growth, although not statistically significant; organoid volume / growth ([3]; 0.05 nM gemcitabine alone): visibly reduced; also recorded: significant inhibition; organoid volume [4]: significant reduction; also recorded: visibly decreased; also recorded: visibly reduced; cancer stem cell burden [5]: no impact
3 | Cl[TeH]1(Cl)(Cl)OCCO1 [AS101] | ✓✓✓ (dose response observed; growth suppressed between 4-fold and 8-fold relative to control) | — | 
4 | Cc1c(F)cccc1NC(=O)Nc1ccc(Cl)c(S(=O)(=O)[C@H]2CCCNC2)c1O [Danirixin] | — |  | 
5 | CCc1cc(Cl)c(OC)c(C(=O)NC[C@@H]2CCCN2CC)c1O [Eticlopride] | — | — | 
6 | NCCCCCCCN=C(N)N [GC7] | ✓ |  | 
7 | Oc1c(Br)cc(Br)cc1-c1[nH]c(Br)c(Br)c1Br [Pentabromopseudilin] | ✓✓ (dose response observed; growth suppressed by less than 4-fold relative to control) |  | 
8 | CC(C)(C)NC(=O)c1cncn1C1CCN(c2ccc(-c3nnc(C(F)(F)F)o3)cn2)CC1 [Wnk463] | ✓✓ (dose response observed; growth suppressed by less than 4-fold relative to control) |  | 
